pIC50: −log10 of the molar value.
molecular target: T1, GLUT1 (Homo sapiens, UniProt P11166); assay: Indirect measurement of GLUT1 activity by quantification of intracellular ATP levels (glucose induced ATP increase); type: cell-based; set-up: endogenous in cells; host or cells: DLD1 or CHO-K1; details: read-out: IC50 regarding glucose induced ATP increase (GLUT1 inhibition)
T1 sequence (P11166 1-492): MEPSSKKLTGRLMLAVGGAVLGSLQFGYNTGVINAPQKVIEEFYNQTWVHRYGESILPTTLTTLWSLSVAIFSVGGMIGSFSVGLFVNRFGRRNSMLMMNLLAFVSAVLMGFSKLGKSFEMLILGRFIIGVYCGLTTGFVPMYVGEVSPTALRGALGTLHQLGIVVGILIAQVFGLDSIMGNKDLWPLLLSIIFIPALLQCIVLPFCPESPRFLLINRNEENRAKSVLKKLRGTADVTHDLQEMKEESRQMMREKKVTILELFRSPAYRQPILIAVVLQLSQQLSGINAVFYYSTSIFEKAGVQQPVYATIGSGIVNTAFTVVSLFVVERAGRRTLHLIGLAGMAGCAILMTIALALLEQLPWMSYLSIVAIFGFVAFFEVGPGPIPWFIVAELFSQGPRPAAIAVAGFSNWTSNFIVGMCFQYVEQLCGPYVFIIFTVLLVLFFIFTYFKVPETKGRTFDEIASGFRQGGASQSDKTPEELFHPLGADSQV
In short: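 Intracellular ATP was measured by CellTiter-Glo luminescence as an indirect readout of transport: glucose-driven for GLUT1, fructose-driven for GLUT2. DLD1 or CHO-K1 cells were used alongside an oxidative phosphorylation inhibitor. Beforehand, cells were held overnight in glucose-free 1% FCS medium to deplete ATP.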

| pIC50 | SMILES |
| --- | --- |
| 8.60 | Cc1nn(Cc2ccc(F)cc2)c(C)c1NC(=O)c1cc(C2CC2)nc2ccc(Cl)cc12 [Example 125, 6-chloro-2-cyclopropyl-N-[1-(4-fluorobenzyl)-3,5-dimethyl-1H-pyrazol-4-yl]quinoline-4-carboxamide] |
| 6.53 | Cc1c(NC(=O)c2cc(C(N)=O)nc3ccccc23)c(C(F)(F)F)nn1Cc1cccc(S(C)(=O)=O)c1 [Example 1636] |
| 8.09 | Cc1nn(Cc2ccc(C#N)nc2)c(C)c1NC(=O)c1cc(C(F)(F)F)nc2ccc(Br)cc12 [Example 147, 6-bromo-N-{1-[(6-cyanopyridin-3-yl)methyl]-3,5-dimethyl-1H-pyrazol-4-yl}-2-(trifluoromethyl)quinoline-4-carboxamide] |
| 7.50 | Cc1nn(Cc2ccc(C#N)nc2)c(C)c1NC(=O)c1cc(C(N)=O)nc2ccc(F)cc12 [Example 1086] |
| 8.54 | Cc1cccc(Cn2nc(C)c(NC(=O)c3cc(C(N)=O)nc4cc(F)c(Cl)cc34)c2C)c1 [Example 1476] |
| 7.66 | Cc1nn(Cc2ccc(C(=O)NCC3CC3)cn2)c(C)c1NC(=O)c1cc(C(F)(F)F)nc2ccc(Br)cc12 [Example 1073] |
| 7.06 | COc1cc(C(=O)Nc2c(C(F)(F)F)nn(Cc3ccc(C#N)nc3)c2C)c2ccccc2n1 [Example 1128] |
| 8.49 | Cc1nn(Cc2ccc(C(=O)NCCF)cc2)c(C)c1NC(=O)c1cc(C(F)(F)F)nc2ccc(Br)cc12 [Example 1030] |
| 7.45 | COc1ccc(Cn2nc(C(F)(F)F)c(NC(=O)c3cc(OC)nc4ccccc34)c2C)cc1 [Example 1089] |
| 6.32 | Cc1nn(Cc2ccc(C(N)=O)cn2)c(C)c1NC(=O)c1cc(C(N)=O)nc2ccc(F)cc12 [Example 1207] |
| 7.63 | Cc1c(NC(=O)c2cc(C(N)=O)nc3ccccc23)c(C(F)(F)F)nn1Cc1cccc(C#N)c1 [Example 1579] |
| 5.70 | CCOC(=O)c1c(NC(=O)c2cc(C(F)(F)F)nc3ccc(Br)cc23)c(C)nn1Cc1ccc(F)cc1 [Example 1255] |
| 8.01 | Cc1c(NC(=O)c2cc(C(N)=O)nc3cc(F)ccc23)c(C(F)(F)F)nn1Cc1ccc(C(F)(F)F)cc1 [Example 1590] |
| 7.44 | COC(=O)c1coc(Cn2nc(C(F)(F)F)c(NC(=O)c3cc(C(N)=O)nc4cc(F)c(Cl)cc34)c2C)n1 [Example 1682] |
| 6.44 | Cc1nn(Cc2ccc(F)cc2)c(C)c1NC(=O)c1cc(C(F)(F)F)nc2ccc(C(F)(F)F)cc12 [Example 98, N-[1-(4-fluorobenzyl)-3,5-dimethyl-1H-pyrazol-4-yl]-2,6-bis(trifluoromethyl)quinoline-4-carboxamide] |
| 8.09 | Cc1nn(Cc2ccc(C(C)C)cc2)c(C)c1NC(=O)c1cc(C(N)=O)nc2ccccc12 [Example 1405] |
| 5.50 | Cc1nn(Cc2ccc(F)cc2)c(C)c1NC(=O)c1c(C)c(O)nc2ccccc12 [Example 1272] |
| 8.25 | Cc1nn(Cc2ccc(C(N)=O)cc2)c(C)c1NC(=O)c1cc(C(F)(F)F)nc2ccc(Br)cc12 [Example 133, 6-bromo-N-[1-(4-carbamoylbenzyl)-3,5-dimethyl-1H-pyrazol-4-yl]-2-(trifluoromethyl)quinoline-4-carboxamide] |
| 6.16 | COc1cccc(Cn2nc(C)c(NC(=O)c3cc(C)nc4ccc(C)cc34)c2C)c1 [Example 109, N-[1-(3-methoxybenzyl)-3,5-dimethyl-1H-pyrazol-4-yl]-2,6-dimethylquinoline-4-carboxamide] |
| 7.22 | CCc1nn(Cc2ccc(F)cc2)c(CC)c1NC(=O)c1cc(C(N)=O)nc2cc(F)ccc12 [Example 1385] |
| 7.58 | COc1cc(C(=O)Nc2c(C(F)(F)F)nn(Cc3ccc(C#N)cn3)c2C)c2ccccc2n1 [Example 365, N-{1-[(5-cyanopyridin-2-yl)methyl]-5-methyl-3-(trifluoromethyl)-1H-pyrazol-4-yl}-2-methoxyquinoline-4-carboxamide] |
| 7.42 | Cc1nn(Cc2ccc(C(=O)NCCO)cn2)c(C)c1NC(=O)c1cc(C(F)(F)F)nc2ccc(Br)cc12 [Example 1093] |
| 8.17 | Cc1nn(Cc2ccc(F)cc2F)c(C)c1NC(=O)c1cc(C(N)=O)nc2cccc(F)c12 [Example 1488] |
| 6.15 | Cc1nn(Cc2ccc(F)cc2)c(C(=O)NCCO)c1NC(=O)c1cc(C(F)(F)F)nc2ccc(Br)cc12 [Example 1219] |

| pIC50 | SMILES |
| --- | --- |
| 8.35 | Cc1c(NC(=O)c2cc(C(N)=O)nc3ccc(Br)cc23)c(C(F)(F)F)nn1Cc1c(F)cc(C#N)cc1F [Example 399, 6-bromo-N^4-[1-(4-cyano-2,6-difluorobenzyl)-5-methyl-3-(trifluoromethyl)-1H-pyrazol-4-yl]quinoline-2,4-dicarboxamide] |
| 8.02 | Cc1nn(Cc2ccc(C(=O)NC[C@H](C)O)cc2)c(C)c1NC(=O)c1cc(C(F)(F)F)nc2ccc(Br)cc12 [Example 1046] |
| 6.54 | CNC(=O)CN(C)C(=O)c1ccc(Cn2nc(C)c(NC(=O)c3cc(C(F)(F)F)nc4ccc(Br)cc34)c2C)cc1 [Example 1187] |
| 5.78 | CNC(=O)N1CCC(Cn2nc(C)c(NC(=O)c3cc(C(N)=O)nc4ccccc34)c2C)CC1 [Example 1247] |
| 6.45 | CCOC(=O)c1cc(Cn2nc(C(F)(F)F)c(NC(=O)c3cc(C(N)=O)nc4cc(F)ccc34)c2C)on1 [Example 1677] |
| 7.56 | Cc1nc(Cn2nc(C)c(NC(=O)c3cc(C(N)=O)nc4ccccc34)c2C)cs1 [Example 1568] |
| 7.87 | CCc1nc(Cn2nc(C)c(NC(=O)c3cc(C(F)(F)F)nc4ccc(Br)cc34)c2C)no1 [Example 1499] |
| 6.83 | Cc1c(NC(=O)c2cc(C(N)=O)nc3ccccc23)c(C(F)(F)F)nn1CC(=O)Nc1ccccc1O [Example 1671] |
| 7.79 | Cc1nn(Cc2ccc(C(=O)N[C@H]3CC[C@@H](O)CC3)cc2)c(C)c1NC(=O)c1cc(C(F)(F)F)nc2ccc(Br)cc12 [Example 1062] |
| 7.95 | Cc1nn(Cc2cccnc2C#N)c(C)c1NC(=O)c1cc(C(N)=O)nc2ccccc12 [Example 223, N^4-{1-[(2-cyanopyridin-3-yl)methyl]-3,5-dimethyl-1H-pyrazol-4-yl}quinoline-2,4-dicarboxamide] |
| 6.84 | Cc1nn(Cc2ccc(C(C)(C)C)cc2)c(C)c1NC(=O)c1cc(C(N)=O)nc2ccccc12 [Example 1369] |
| 6.77 | Cc1nn(Cc2ccc(F)c(Cl)c2)c(C)c1NC(=O)c1cc(C(F)(F)F)nc2ccc(Br)cc12 [Example 190, 6-bromo-N-[1-(3-chloro-4-fluorobenzyl)-3,5-dimethyl-1H-pyrazol-4-yl]-2-(trifluoromethyl)quinoline-4-carboxamide] |
| 7.71 | Cc1nn(Cc2ccc(C(=O)NCc3ccccn3)cc2)c(C)c1NC(=O)c1cc(C(F)(F)F)nc2ccc(Br)cc12 [Example 1068] |
| 6.44 | CCc1nn(Cc2ccc(F)cc2)c(CC)c1NC(=O)c1cc(C(N)=O)nc2cc(Cl)ccc12 [Example 1391] |
| 7.92 | Cc1nn(Cc2ccc(F)cc2)c(C)c1NC(=O)c1cc(C2CC2)nc2c(Br)cccc12 [Example 16, 8-bromo-2-cyclopropyl-N-[1-(4-fluorobenzyl)-3,5-dimethyl-1H-pyrazol-4-yl]quinoline-4-carboxamide] |
| 7.98 | Cc1cccc(Cn2nc(C(F)(F)F)c(NC(=O)c3cc(C(N)=O)nc4cc(F)ccc34)c2C)c1 [Example 1480] |
| 8.43 | CCc1nn(Cc2ccc(C#N)cc2)c(C)c1NC(=O)c1cc(C(N)=O)nc2cc(F)ccc12 [Example 327, N^4-[1-(4-cyanobenzyl)-3-ethyl-5-methyl-1H-pyrazol-4-yl]-7-fluoroquinoline-2,4-dicarboxamide] |
| 7.36 | Cc1c(NC(=O)c2cc(S(C)(=O)=NC#N)nc3ccccc23)c(C(F)(F)F)nn1Cc1ccc(C#N)cc1 (racemic) [Example 386, (±)-N-[1-(4-cyanobenzyl)-5-methyl-3-(trifluoromethyl)-1H-pyrazol-4-yl]-2-(N-cyano-S-methylsulfonimidoyl)quinoline-4-carboxamide] |
| 8.60 | Cc1nn(C(C)c2ccc(C#N)cc2)c(C)c1NC(=O)c1cc(C(N)=O)nc2c(F)cccc12 (racemic) [Example 331, (±)-N^4-{1-[1-(4-cyanophenyl)ethyl]-3,5-dimethyl-1H-pyrazol-4-yl}-8-fluoroquinoline-2,4-dicarboxamide] |
| 8.09 | CNC(=O)c1ccc(Cn2nc(C)c(NC(=O)c3cc(C(F)(F)F)nc4ccc(Br)cc34)c2C)cc1 [Example 135, 6-bromo-N-{3,5-dimethyl-1-[4-(methylcarbamoyl)benzyl]-1H-pyrazol-4-yl}-2-(trifluoromethyl)quinoline-4-carboxamide] |
| 8.34 | Cc1c(NC(=O)c2cc(C(N)=O)nc3cc(F)ccc23)c(C(F)(F)F)nn1Cc1ccc(F)c(F)c1 [Example 1396] |
| 6.47 | Cc1nn(Cc2ccc(C(=O)NCCN3CCOCC3)cn2)c(C)c1NC(=O)c1cc(C(F)(F)F)nc2ccc(Br)cc12 [Example 1191] |
| 6.96 | COc1cc(C(=O)Nc2c(C)nn(Cc3ccc(C)cc3)c2C)c2ccccc2n1 [Example 61, N-[3,5-dimethyl-1-(4-methylbenzyl)-1H-pyrazol-4-yl]-2-methoxyquinoline-4-carboxamide] |
| 7.17 | Cc1c(NC(=O)c2cc(C(N)=O)nc3cc(F)ccc23)c(C(F)(F)F)nn1Cc1ccc(C(C)(C)C#N)cc1 [Example 1596] |
